Reference: ChEMBL document CHEMBL3885881, “DrugMatrix”

Species on record: Rattus norvegicus
Assay: DrugMatrix - Regimen: Daily Repeat
Type: toxicity, organism-based, Sprague-Dawley
Set-up: regimen Daily Repeat, gender Male, age 6-8 weeks
Conditions: in vivo, 0 mg/kg, dose level Control, vehicle 100 % SALINE; for ABSOLUTE BASOPHIL / ABSOLUTE EOSINOPHIL / ABSOLUTE LYMPHOCYTE / ABSOLUTE MONOCYTE / ABSOLUTE SEGMENTED NEUTROPHIL / BASOPHIL / EOSINOPHIL / ERYTHROCYTE COUNT / HEMATOCRIT / HEMOGLOBIN / LEUKOCYTE COUNT / LYMPHOCYTE / MEAN CORPUSCULAR HEMOGLOBIN / MEAN CORPUSCULAR HEMOGLOBIN CONCENTRATION / MEAN CORPUSCULAR VOLUME / MONOCYTE / NEUTROPHIL / NUCLEATED RED BLOOD CELLS / PLATELET COUNT: tissue Blood; for ALANINE AMINOTRANSFERASE / ALBUMIN / ALKALINE PHOSPHATASE / ASPARTATE AMINOTRANSFERASE / BLOOD UREA NITROGEN / CARBON DIOXIDE / CHLORIDE / CHOLESTEROL / CREATINE PHOSPHOKINASE / CREATININE / GLUCOSE / LIPASE / PHOSPHORUS / POTASSIUM / SODIUM / TOTAL BILIRUBIN / TOTAL PROTEIN / URIC ACID: tissue Plasma
[1] = po, 72 h, route oral GAVAGE, time 3 day
[2] = po, 120 h, route oral GAVAGE, time 5 day

COc1cccc2c1C(=O)c1c(O)c3c(c(O)c1C2=O)C[C@@](O)(C(C)=O)C[C@@H]3O[C@H]1C[C@H](N)[C@H](O)[C@H](C)O1 [DAUNORUBICIN]
ABSOLUTE BASOPHIL (iv, 72 h, time 3 day): 0 CELLS/uL
ABSOLUTE EOSINOPHIL (iv, 72 h, time 3 day): 21.67 CELLS/uL
ABSOLUTE LYMPHOCYTE (iv, 72 h, time 3 day): 10193.67 CELLS/uL
ABSOLUTE MONOCYTE (iv, 72 h, time 3 day): 165.83 CELLS/uL
ABSOLUTE SEGMENTED NEUTROPHIL (iv, 72 h, time 3 day): 702.17 CELLS/uL
BASOPHIL (iv, 72 h, time 3 day): 0%
EOSINOPHIL (iv, 72 h, time 3 day): 0.17%
ERYTHROCYTE COUNT (iv, 72 h, time 3 day): 5.39 x10E6/uL
HEMATOCRIT (iv, 72 h, time 3 day): 34.62%
HEMOGLOBIN (iv, 72 h, time 3 day): 13.8 G/DL
LEUKOCYTE COUNT (iv, 72 h, time 3 day): 11.08 x10E3/uL
LYMPHOCYTE (iv, 72 h, time 3 day): 91.83%
MEAN CORPUSCULAR HEMOGLOBIN (iv, 72 h, time 3 day): 25.68 pg
MEAN CORPUSCULAR HEMOGLOBIN CONCENTRATION (iv, 72 h, time 3 day): 39.9 G/DL
MEAN CORPUSCULAR VOLUME (iv, 72 h, time 3 day): 64.37 fL
MONOCYTE (iv, 72 h, time 3 day): 1.5%
NEUTROPHIL (iv, 72 h, time 3 day): 6.5%
NUCLEATED RED BLOOD CELLS (iv, 72 h, time 3 day): 0 /100WBC
PLATELET COUNT (iv, 72 h, time 3 day): 1202.83 x10E3/uL
ALANINE AMINOTRANSFERASE (iv, 72 h, time 3 day): 55.5 u/L
ALBUMIN (iv, 72 h, time 3 day): 4.22 G/DL
ALKALINE PHOSPHATASE (iv, 72 h, time 3 day): 406.83 u/L
ASPARTATE AMINOTRANSFERASE (iv, 72 h, time 3 day): 101.5 u/L
BLOOD UREA NITROGEN (iv, 72 h, time 3 day): 13.5 mg/dL
CARBON DIOXIDE (iv, 72 h, time 3 day): 30.33 mmol/L
CHLORIDE (iv, 72 h, time 3 day): 102.17 MEQ/L
CHOLESTEROL (iv, 72 h, time 3 day): 63.67 mg/dL
CREATINE PHOSPHOKINASE (iv, 72 h, time 3 day): 732.67 u/L
CREATININE (iv, 72 h, time 3 day): 0.2 mg/dL
GLUCOSE (iv, 72 h, time 3 day): 157 mg/dL
LIPASE (iv, 72 h, time 3 day): 10.83 u/L
PHOSPHORUS (iv, 72 h, time 3 day): 12.68 mg/dL
POTASSIUM (iv, 72 h, time 3 day): 5.67 MEQ/L
SODIUM (iv, 72 h, time 3 day): 144 MEQ/L
TOTAL BILIRUBIN (iv, 72 h, time 3 day): 0.15 mg/dL
TOTAL PROTEIN (iv, 72 h, time 3 day): 6.02 G/DL
URIC ACID (iv, 72 h, time 3 day): 1.55 mg/dL
ABSOLUTE BASOPHIL (iv, 120 h, time 5 day): 0 CELLS/uL
ABSOLUTE EOSINOPHIL (iv, 120 h, time 5 day): 17 CELLS/uL
ABSOLUTE LYMPHOCYTE (iv, 120 h, time 5 day): 11849.17 CELLS/uL
ABSOLUTE MONOCYTE (iv, 120 h, time 5 day): 69.83 CELLS/uL
ABSOLUTE SEGMENTED NEUTROPHIL (iv, 120 h, time 5 day): 730.67 CELLS/uL
BASOPHIL (iv, 120 h, time 5 day): 0%
EOSINOPHIL (iv, 120 h, time 5 day): 0.17%
ERYTHROCYTE COUNT (iv, 120 h, time 5 day): 5.93 x10E6/uL
HEMATOCRIT (iv, 120 h, time 5 day): 37.42%
HEMOGLOBIN (iv, 120 h, time 5 day): 14.4 G/DL
LEUKOCYTE COUNT (iv, 120 h, time 5 day): 12.67 x10E3/uL
LYMPHOCYTE (iv, 120 h, time 5 day): 93.17%
MEAN CORPUSCULAR HEMOGLOBIN (iv, 120 h, time 5 day): 24.32 pg
MEAN CORPUSCULAR HEMOGLOBIN CONCENTRATION (iv, 120 h, time 5 day): 38.5 G/DL
MEAN CORPUSCULAR VOLUME (iv, 120 h, time 5 day): 63.08 fL
MONOCYTE (iv, 120 h, time 5 day): 0.5%
NEUTROPHIL (iv, 120 h, time 5 day): 6.17%
NUCLEATED RED BLOOD CELLS (iv, 120 h, time 5 day): 0 /100WBC
PLATELET COUNT (iv, 120 h, time 5 day): 1170.5 x10E3/uL
ALANINE AMINOTRANSFERASE (iv, 120 h, time 5 day): 51 u/L
ALBUMIN (iv, 120 h, time 5 day): 4.12 G/DL
ALKALINE PHOSPHATASE (iv, 120 h, time 5 day): 392.67 u/L
ASPARTATE AMINOTRANSFERASE (iv, 120 h, time 5 day): 81.67 u/L
BLOOD UREA NITROGEN (iv, 120 h, time 5 day): 16.17 mg/dL
CARBON DIOXIDE (iv, 120 h, time 5 day): 30.67 mmol/L
CHLORIDE (iv, 120 h, time 5 day): 100.5 MEQ/L
CHOLESTEROL (iv, 120 h, time 5 day): 64.83 mg/dL
CREATINE PHOSPHOKINASE (iv, 120 h, time 5 day): 242.67 u/L
CREATININE (iv, 120 h, time 5 day): 0.2 mg/dL
GLUCOSE (iv, 120 h, time 5 day): 186.83 mg/dL
LIPASE (iv, 120 h, time 5 day): 10.83 u/L
PHOSPHORUS (iv, 120 h, time 5 day): 11.67 mg/dL
POTASSIUM (iv, 120 h, time 5 day): 5.51 MEQ/L
SODIUM (iv, 120 h, time 5 day): 142.55 MEQ/L
TOTAL BILIRUBIN (iv, 120 h, time 5 day): 0.22 mg/dL
TOTAL PROTEIN (iv, 120 h, time 5 day): 6.08 G/DL
URIC ACID (iv, 120 h, time 5 day): 1.85 mg/dL
ABSOLUTE BASOPHIL [1]: 140 cells/µL
ABSOLUTE EOSINOPHIL [1]: 43.3 cells/µL
ABSOLUTE LYMPHOCYTE [1]: 7570 cells/µL
ABSOLUTE MONOCYTE [1]: 160 cells/µL
BASOPHIL [1]: 1.47%
EOSINOPHIL [1]: 0.47%
ERYTHROCYTE COUNT [1]: 6.68 x10E6/uL
HEMATOCRIT [1]: 44.33%
HEMOGLOBIN [1]: 14.43 G/DL
LEUKOCYTE COUNT [1]: 9.33 x10E3/uL
LYMPHOCYTE [1]: 81.23%
MEAN CORPUSCULAR HEMOGLOBIN [1]: 21.67 pg
MEAN CORPUSCULAR HEMOGLOBIN CONCENTRATION [1]: 32.6 G/DL
MEAN CORPUSCULAR VOLUME [1]: 66.43 fL
MONOCYTE [1]: 1.73%
NEUTROPHIL [1]: 14.7%
PLATELET COUNT [1]: 1341.67 x10E3/uL
ALANINE AMINOTRANSFERASE [1]: 31 u/L
ALBUMIN [1]: 4.03 G/DL
ALKALINE PHOSPHATASE [1]: 447 u/L
ASPARTATE AMINOTRANSFERASE [1]: 61.33 u/L
BLOOD UREA NITROGEN [1]: 15.67 mg/dL
CARBON DIOXIDE [1]: 43 mmol/L
CHLORIDE [1]: 103.33 MEQ/L
CHOLESTEROL [1]: 83.67 mg/dL
CREATINE PHOSPHOKINASE [1]: 174.33 u/L
CREATININE [1]: 0.4 mg/dL
GLUCOSE [1]: 173 mg/dL
LIPASE [1]: 17.33 u/L
PHOSPHORUS [1]: 10.27 mg/dL
POTASSIUM [1]: 6.47 MEQ/L
SODIUM [1]: 143.67 MEQ/L
TOTAL BILIRUBIN [1]: 0.37 mg/dL
TOTAL PROTEIN [1]: 6.63 G/DL
URIC ACID [1]: 1.03 mg/dL
ABSOLUTE BASOPHIL [2]: 53.3 cells/µL
ABSOLUTE EOSINOPHIL [2]: 210 cells/µL
ABSOLUTE LYMPHOCYTE [2]: 8220 cells/µL
ABSOLUTE MONOCYTE [2]: 200 cells/µL
BASOPHIL [2]: 0.53%
EOSINOPHIL [2]: 2.1%
ERYTHROCYTE COUNT [2]: 7 x10E6/uL
HEMATOCRIT [2]: 44%
HEMOGLOBIN [2]: 14.53 G/DL
LEUKOCYTE COUNT [2]: 10.44 x10E3/uL
LYMPHOCYTE [2]: 78.07%
MEAN CORPUSCULAR HEMOGLOBIN [2]: 20.77 pg
MEAN CORPUSCULAR HEMOGLOBIN CONCENTRATION [2]: 33 G/DL
MEAN CORPUSCULAR VOLUME [2]: 62.87 fL
MONOCYTE [2]: 1.87%
NEUTROPHIL [2]: 16.8%
PLATELET COUNT [2]: 1104.33 x10E3/uL
ALANINE AMINOTRANSFERASE [2]: 31.67 u/L
ALBUMIN [2]: 3.93 G/DL
ALKALINE PHOSPHATASE [2]: 394.67 u/L
ASPARTATE AMINOTRANSFERASE [2]: 65.67 u/L
BLOOD UREA NITROGEN [2]: 15.67 mg/dL
CARBON DIOXIDE [2]: 40.67 mmol/L
CHLORIDE [2]: 104.33 MEQ/L
CHOLESTEROL [2]: 66.33 mg/dL
CREATINE PHOSPHOKINASE [2]: 346.67 u/L
CREATININE [2]: 0.33 mg/dL
GLUCOSE [2]: 176.67 mg/dL
LIPASE [2]: 14.33 u/L
PHOSPHORUS [2]: 11.17 mg/dL
POTASSIUM [2]: 6.53 MEQ/L
SODIUM [2]: 146 MEQ/L
